settings: not given

| Structure (SMILES) | logP |
| --- | --- |
| CC(=O)N(C)CCOC(=O)c1ccccc1 | 1.24 |
| O=C(OCC(=O)N1CCOCC1)c1ccccc1 | 0.9 |
| C=CCN(CC=C)C(=O)COC(=O)c1ccccc1 | 2.34 |
| CCCCCCN(CCCCCC)C(=O)COC(=O)c1ccccc1 | 6.53 |
| CC(O)CN(CC(C)O)C(=O)COC(=O)c1ccccc1 (stereo unspecified) | 0.66 |
| CCN(CC)C(=O)C(C)OC(=O)c1ccccc1 (stereo unspecified) | 2.3 |
| COCCN(CCOC)C(=O)COC(=O)c1ccccc1 | 1.28 |
| NC(=O)C1CCCN1C(=O)COC(=O)c1ccccc1 (stereo unspecified) | 0.2 |
| O=C(OCC(=O)N1CCC(O)CC1)c1ccccc1 | 0.63 |
| CCC1CCCCN1C(=O)COC(=O)c1ccccc1 (stereo unspecified) | 2.62 |
| O=C(OCC(=O)N1CCCCC1)c1ccccc1 | 1.95 |

The next lines start with the values.

| logP | Structure (SMILES) |
| --- | --- |
| 2.81 | CCCCCCNC(=O)COC(=O)c1ccccc1 |
| 2.99 | CCCCCCN(C)C(=O)COC(=O)c1ccccc1 |
| 1.73 | CC(C)NC(=O)COC(=O)c1ccccc1 |
| 0.69 | NC(=O)COC(=O)c1ccccc1 |
| 2.36 | CCCCNC(=O)COC(=O)c1ccccc1 |
| 0.42 | CC(NC(=O)COC(=O)c1ccccc1)C(N)=O (stereo unspecified) |
| 1.28 | CCNC(=O)COC(=O)c1ccccc1 |
| 0.25 | O=C(COC(=O)c1ccccc1)NC(CO)(CO)CO |
| 2.26 | CC(C)(C)NC(=O)COC(=O)c1ccccc1 |
| 1.58 | CC(=O)N(C)C(=O)COC(=O)c1ccccc1 |
| 1.88 | CCCNC(=O)COC(=O)c1ccccc1 |
| 0.99 | CNC(=O)COC(=O)c1ccccc1 |
| 1.24 | CC(=O)NC(=O)COC(=O)c1ccccc1 |

same assay, conditions: pH 2.0

| logD | Structure (SMILES) |
| --- | --- |
| 0.67 | CN(CC(=O)O)C(=O)COC(=O)c1ccccc1 |
| 0.79 | O=C(OCC(=O)N1CCC1C(=O)O)c1ccccc1 (stereo unspecified) |
